# Entries after “also recorded” stand apart in the source; their conditions may differ.
# Legend:
# GHSR1a^E197A = target: T1, GHSR1a^E197A (Homo sapiens, UniProt Q92847, E197A); assay: iCa2+ at E197A mutant; assay type: cell-based
# T1 construct: expressed in transfected cells; host or cells: HEK293/T
# Method: (§1) For experiments with WT and Gt KO HEK293/S cells, […] of hGHSR1a^WT, 10 μg of miAEQ, and 2.5 μg of pcDNA3.1 was transiently transfected into 10 cm dishes and incubated overnight. […] Twenty-four hours later, experiments proceeded in accordance with the procedures described above. To control for any possible kinetic differences in genetically modified cell lines or GHSR1a variants, the average ligand-induced response over 10 seconds was calculated, then normalized by dividing the L-miAeq by the L-miAeq plus the Lysis-miAeq and normalized to the appropriate control/reference condition.
# GHSR1a^R199A = target: T2, GHSR1a^R199A (Homo sapiens, UniProt Q92847, R199A); assay: Gαq dissociation and iCa2+ at R199A mutant; assay type: cell-based
# T2 construct: expressed in transfected cells; host or cells: HEK293/T
# Method: as §1
# GHSR1a^N305A = target: T3, GHSR1a^N305A (Homo sapiens, UniProt Q92847, N305A); assay: iCa2+ at N305A mutant; assay type: cell-based
# T3 construct: expressed in transfected cells; host or cells: HEK293/T
# Method: as §1
# hGHSR1a^A204E = hGHSR1a^A204E (Homo sapiens, UniProt Q92847, A204E); assay: cell-based; conditions: read-out: Gαq dissociation maximal efficacy decrease at GHSR1a^A204E
# Method: (§3) BRET-based Gαq Dissociation & β-arr2 Recruitment Assays. TRUPATH Gα dissociation: Gαq/i1/i2/OA/12/13/sS^RLuc8 and Gγ8^GFP2 or Gγ9^GFP2 were transiently co-transfected with human 3×HA-GHSR1a^WT and untagged Gβ3 at a 1:1:1:1 ratio (100 μg each) into monolayers of HEK293/T cells along with 1.6 μg pcDNA3.1. The next morning, media (DMEM supplemented with 10% FBS and antibiotic/antimycotic) was exchanged and after 4-6 hours, cells were plated on white 96-well, clear-bottomed assay plates at a density of 40,000-50,000 cells/well in opti-MEM supplemented with 2% FBS and antibiotic/antimycotic. The next morning, opti-MEM was removed and cells were incubated with 80 μL HBSS supplemented with 20 mM HEPES (pH 7.4) for 4 hours. Cells were then treated with 10 μL of the luminescent substrate, coelenterazine 400a (5 μM final), for 5 minutes at room temperature prior to the addition of 10 μL of test compound. Five minutes after ligand application, luminescence was measured by a Mithras 940 plate reader over 30 minutes and the maximal response was utilized for generating all C/R curves.
# DAT knockout (KO) mice = assay: Spontaneous hyperlocomotion in DAT KO mice (open field); assay type: in vivo, mouse; conditions: 2.5, 5, or 10 mg/kg, IP; 120 minutes
# Method: To evaluate the effect of N8279 on DAergic-modulated behavior in vivo, DAT knockout (KO) mice, which have constitutively elevated extracellular DA levels and consequently, spontaneous hyperactivity in a novel, open-field were used. After a 30 minute acclimation period, male and female DAT KO mice were administered vehicle or pharmacologically-relevant, brain penetrant doses of N8279 (FIG. 4A; 2.5, 5, or 10 mg/kg, IP), then were returned to the open-field and locomotion measured for 120 minutes.
# (§2) Novelty-induced locomotor activity in DAT KO and inbred C57BL/6J mice. Open-field locomotor activity in mice was performed similar to that described in Barak et al., ACS Chem Biol. (2016)11(7):1880-90, the disclosure of which is incorporated herein in its entirety. In brief, Age- and sex-matched, littermate DAT KO and inbred C57BL/6J mice between 2-6 months of age were used to measure locomotor activity in an Omnitech Digiscan activity monitor (20×20 cm2; Accuscan Instruments, Columbus, OH). Locomotor activity was measured at 5 minutes intervals. To evaluate the effects of compounds on locomotor behavior, the mice were placed in an activity monitor for a 20-minute habituation period, and afterwards injected with drug or vehicle, returned to the monitor, and locomotor activity was recorded over a period of 90 minutes.
# GHSR1a^P200A = target: T4, GHSR1a^P200A (Homo sapiens, UniProt Q92847, P200A); assay: Gαq dissociation and iCa2+ at P200A mutant; assay type: cell-based
# T4 construct: expressed in transfected cells; host or cells: HEK293/T
# Method: as §1
# human GHSR1a^WT (Gαq) [1] = target: T5, human GHSR1a^WT (Gαq) (Homo sapiens, UniProt Q92847); assay: TRUPATH (BRET) Gαq dissociation
# Method: as §3
# human GHSR1a^WT (Gαq) [2] = target: T5, human GHSR1a^WT (Gαq); assay: NanoBiT Gαq dissociation/activation; assay type: cell-based; design: HEK293/T (transient); HEK293S Gαq knockout (transient, NanoBiT Gαq)
# mGHSR A199P = target: T6, mGHSR A199P (Mus musculus, UniProt Q99P50, A199P); assay: Gαq dissociation and β-arr2 recruitment at humanized mouse receptor; assay type: cell-based
# T6 construct: expressed in transfected cells
# Method: To assess if N8279 signaling required receptor sites within and/or conformational states are conserved from the mouse receptor to the human receptor, the amino acid sequences for variations within the ECL2 were first determined (FIG. 17A). Mutations were made to human GHSR1a receptor (hGHSR) for W193R and P200A and to mouse GHSR1a receptor (mGHSR) for […]. N8279-stimulated Gαq dissociation (FIG. 17B) and β-arr2 recruitment (FIG. 17C) were evaluated for each hGHSR and mGHSR mutants in comparison to endogenous (WT) receptors.
# GHSR1a = GHSR1a (Homo sapiens, UniProt Q92847); assay: PRESTO-Tango GPCRome β-arr2 recruitment screen; assay type: cell-based; design: expressed in transfected cells; conditions: N8279 1 μM
# Method: Hits were defined as >3-fold activation above baseline. […] The assay quality was assessed by plotting duplicate, independent trial averages (derived from 4 independent wells) for each receptor as a point (X,Y). The corresponding plot of points for an ideal assay were fit by a regression line with the slope=1.
# C57BL/6J mice = assay: Novelty-induced open-field locomotion in WT mice; assay type: in vivo, mouse; conditions: 2.5, 5, 10 mg/kg IP
# Method: N=14-17 mice per treatment group.
# as §2, with “intervals.” for “intervals. To evaluate the effects of compounds on locomotor behavior, the mice were placed in an activity monitor for a 20-minute habituation period, and afterwards injected with drug or vehicle, returned to the monitor, and locomotor activity was recorded over a period of 90 minutes.”
# hGHSR1a^WT = hGHSR1a^WT (Homo sapiens, UniProt Q92847); conditions: 100 nM, 45 minutes
# hGHSR1a^WT, sequence (Q92847 whole entry): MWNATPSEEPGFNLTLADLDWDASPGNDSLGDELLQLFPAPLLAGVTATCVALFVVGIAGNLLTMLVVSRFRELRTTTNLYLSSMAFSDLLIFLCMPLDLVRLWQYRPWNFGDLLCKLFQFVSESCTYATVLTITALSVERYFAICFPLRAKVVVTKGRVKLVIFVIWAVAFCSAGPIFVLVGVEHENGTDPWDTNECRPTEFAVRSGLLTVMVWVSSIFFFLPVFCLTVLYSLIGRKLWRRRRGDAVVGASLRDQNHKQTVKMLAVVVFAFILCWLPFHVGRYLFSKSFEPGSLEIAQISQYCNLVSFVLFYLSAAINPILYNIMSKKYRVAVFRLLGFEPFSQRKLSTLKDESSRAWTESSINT
# Method: U2OS cells stably expressing the human GHSR1a^WT and β-arr2^GFP were seeded onto 35 mm MatTek (Ashland, MA, USA) glass coverslip dishes in opti-MEM supplemented with 2% FBS and antibiotic-antimycotic and grown overnight in a humified incubator (5% CO2, 37° C.). The next morning, media was aspirated and replaced with fresh, serum-free opti-MEM (supplemented with antibiotic-antimycotic). […] Next, treatment was terminated by aspiration of media, a PBS wash, and fixation with 4% paraformaldehyde (20 minutes, room temperature (RT)). Fixed cells were either stored at 4° C. or immediately imaged for β-arr2^GFP translocation with a Zeiss LSM 510 meta confocal microscopy.
# T5 sequence (Q92847 whole entry): as above
# T1 sequence (Q92847 whole entry E197A): as the sequence (Q92847 whole entry) above, with E197A counted along it
# GHSR1a, sequence (Q92847 whole entry): as the sequence (Q92847 whole entry) above
# T3 sequence (Q92847 whole entry N305A): as the sequence (Q92847 whole entry) above, with N305A counted along it
# T4 sequence (Q92847 whole entry P200A): as the sequence (Q92847 whole entry) above, with P200A counted along it
# T6 sequence (Q99P50 whole entry A199P): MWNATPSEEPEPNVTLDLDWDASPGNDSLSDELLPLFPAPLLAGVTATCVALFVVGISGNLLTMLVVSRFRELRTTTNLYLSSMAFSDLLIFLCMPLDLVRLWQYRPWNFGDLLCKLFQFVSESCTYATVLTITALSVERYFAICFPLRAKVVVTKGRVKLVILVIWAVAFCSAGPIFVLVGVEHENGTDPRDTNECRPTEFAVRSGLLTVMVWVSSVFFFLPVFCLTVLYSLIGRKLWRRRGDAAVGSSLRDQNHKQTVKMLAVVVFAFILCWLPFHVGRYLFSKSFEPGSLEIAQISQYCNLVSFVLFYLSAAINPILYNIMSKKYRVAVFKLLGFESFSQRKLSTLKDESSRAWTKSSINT
# hGHSR1a^A204E, sequence (Q92847 whole entry A204E): as the sequence (Q92847 whole entry) above, with A204E counted along it
# T2 sequence (Q92847 whole entry R199A): as the sequence (Q92847 whole entry) above, with R199A counted along it
compound,measurement,setting,value
"COc1ccc(C(=O)c2c(C(=O)NCCCN(C)C)oc3ccc(Cl)cc3c2=O)cc1OC [Example N8279, 6-Chloro-3-(3,4-dimethoxybenzoyl)-N-(3-(dimethylamino)propyl)-4-oxo-4H-chromene-2-carboxamide]",iCa2+ potency reduction at GHSR1a^E197A,GHSR1a^E197A,~3 fold
same,potency at GHSR1a^R199A in words,GHSR1a^R199A,did not affect
same,iCa2+ potency reduction at GHSR1a^N305A,GHSR1a^N305A,6.5 fold
same,Emax,hGHSR1a^A204E,~45%
same,hyperlocomotion in DAT KO mice in words,DAT knockout (KO) mice,reduced locomotion; also recorded: reduced overall hyperlocomotion
same,potency and Emax at GHSR1a^P200A in words,GHSR1a^P200A,reduced dramatically
same,"BRET-Gαq potency, fold less potent than L585",human GHSR1a^WT (Gαq) [1],1.7 fold
same,"BRET-Gαq potency, fold less potent than ghrelin",human GHSR1a^WT (Gαq) [1],6.1 fold
same,Gαq activation efficacy in words,human GHSR1a^WT (Gαq) [1]; NanoBiT and BRET (TRUPATH) assays,full agonist
same,Gαq activation Emax (NanoBiT),human GHSR1a^WT (Gαq) [2],118.3±9.8
same,signaling at humanized mGHSR in words,mGHSR A199P,rescues
same,activation above baseline at GHSR1a,GHSR1a,6 fold
same,novelty-induced open-field locomotion in words,C57BL/6J mice,No statistically significant differences; also recorded: did not affect
same,β-arr2^GFP translocation in words,hGHSR1a^WT,minimal response
